The values below are quoted from earlier work in patent publication US12630850B2, “Enzymatic break down of chlorogenic acid in sunflower-containing products” (Chapman University, priority 2022, dated 2026).

The conditions of data set [1]: Kabir et al., 2014; cited from earlier work.
The conditions of data set [2]: p-nitrophenyl acetate, between 20° C. and 40° C.; cited from earlier work.
For data set [3] the following is noted: Lai et al., 2009; cited from earlier work.

On to `O=C(/C=C/c1ccc(O)c(O)c1)O[C@@H]1C[C@](O)(C(=O)O)C[C@@H](O)[C@H]1O` [CGA, Chlorogenic acid], for which, in data set [1], the pKa is given as 3.6.

Regarding `O=C(O)/C=C/c1ccc(O)c(O)c1` [caffeic acid], the pKa in data set [1] is reported as 4.5.

Take `O=C(O)[C@]1(O)C[C@@H](O)[C@@H](O)[C@H](O)C1` [quinic acid]: the pKa in data set [1] is on record as 3.4.

B1: L. gasseri: CGA esterase from the bacterium L. gasseri (Fritsch et al., 2017) (protein, listed as Lactobacillus gasseri)
chain: MKLKKKKVGIYMATITIERDGLNLVGTREEPFGEIYDMAIIFHGFTANRNTPLLKEIADELRDENIASVRFDFNGHGDSDGKFENMTVLNEIEDANAILNYVKTDPHVRNIYLVGHSQGGVVASMLAGLYPDIIKKVVLLAPAATLKTDALNGSTQGVKYNPDHIPDRLPFKDLTLGFYLRIAQQLPIYEVSVHFTRPVCLIHGANDTWSPDASKKYDQVYENSTLHLVEGADHSFTDTYQKTAADLTAEFLQDNNTF
In the case of B1, in data set [2], the Temperature-dependence of activity entry is reported as “very weak temperature-dependence”.

B2: L. johnsonii: CGA esterase from L. johnsonii (Lai et al., 2009) (protein, listed as Lactobacillus johnsonii)
chain: MATTITLERDGLQLVGTREEPFGEIYDMAIIFHGFTANRNTSLLKEIANSLRDENIASVRFDFNGHGDSDGKFENMTVLNEIEDANAILNYVKTDPHVRNIYLVGHSQGGVVASMLAGLYPDLIKKVVLLAPAATLKSDALEGNTQGVTYNPDHIPDRLPFKDLTLGFYLRIAQQLPIYEVSAQFTKPVCLIHGTDDTWSPNASKKYDQIYQNSTLHLIEGADHCFSDSYQKNAVNLTTDFLQNNNAF
Consider B2, for which the Michaelis-Menten constant (Km) in data set [3] is 53 µM.
